# Earlier results in patent US20060257475A1, “Stable Sertraline Hydrochloride Formulation and Method” (Boehringer Ingelheim International GmbH, priority 2006, published 2006).
# Columns and labels:
# [1] = reported in U.S. Pat. No. 5,734,083
# [2] = reported in U.S. Pat. No. 5,248,699
structure (smiles),measurement,setting,value
"CN[C@H]1CC[C@@H](c2ccc(Cl)c(Cl)c2)c2ccccc21 [Form I, (1S-cis)-4-(3,4-Dichlorophenyl)-1,2,3,4-tetrahydro-N-methyl-1-napththalenamine]",Solubility,[1],extremely insoluble
same,Stability among Forms I to V,[2],greatest stability of these five forms
same,Thermodynamic stability relative to other crystalline forms,[2]; room temperature,"more thermodynamically stable than Forms II, III, IV, and V"
